Data taken from ChEMBL document CHEMBL1201862, “PubChem BioAssay data set” (2004).
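Protocol summary: plate cells (96-well), add compound at 5 concentrations, incubate 48 h, interpolate endpoints linearly. Here, GI50 denotes the concentration required for 50% inhibition of growth.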 Active and inactive are the calls of the source. Cut-off read from the data, not from the text of the source: active = GI50 up to about 1.1 µM and inactive = higher.

How the values were obtained:
Experiment in all cases: inhibition of tumour cell growth, NCI panel, 48 h
[1] = system: HCT-15
[2] = system: OVCAR-3
[3] = system: CCRF-CEM
[4] = system: HCT-116
[5] = system: SK-MEL-2
[6] = system: EKVX
[7] = system: UACC-62
[8] = system: UACC-257
[9] = system: NCI-H460
[10] = system: MOLT-4
[11] = system: T47D
[12] = system: Hs-578T
[13] = system: SW-620
[14] = system: A549
[15] = system: OVCAR-8
[16] = system: TK-10
[17] = system: HCC 2998
[18] = system: HOP-92
[19] = system: PC-3

SMILES | GI50 [1] [µM] | GI50 [2] | GI50 [3] | GI50 [4] | GI50 [5] | GI50 [6] | GI50 [7] | GI50 [8] | GI50 [9] | GI50 [10] | GI50 [11] | GI50 [12] | GI50 [13] | GI50 [14] | GI50 [15] | GI50 [16] | GI50 [17] | GI50 [18] | GI50 [19]
Cc1cc(C)cc(Nc2nnc3n2S(=O)(=O)c2cc(C#N)c(Cl)cc2S3)c1 | 2.52 | 1.57 µM (inactive) | 1.07 µM (active) | 2.17 µM (inactive) | 7.53 µM (inactive) | 8.67 µM (inactive) | 3.97 µM (inactive) | 1.44 µM (inactive) | 3.14 µM (inactive) | 1.11 µM (active) | 3.26 µM (inactive) | 2.68 µM (inactive) | 2.39 µM (inactive) | 16.2 µM (inactive) | – | – | – | – | –
CSc1cc(Br)ccc1-n1c(C(=O)c2ccccc2)c(SC)n(-c2ccccc2)c1=O | 23 | > 100 µM (inactive) | – | 49.3 µM (inactive) | – | > 100 µM (inactive) | > 100 µM (inactive) | > 100 µM (inactive) | 50.9 µM (inactive) | 5.28 µM (inactive) | – | > 100 µM (inactive) | 19 µM (inactive) | > 100 µM (inactive) | > 100 µM (inactive) | > 100 µM (inactive) | 86.9 µM (inactive) | > 100 µM (inactive) | 5.53 µM (inactive)
COc1ccc(CC#N)c(OCc2ccccc2)c1 | – | 80.5 µM (inactive) | > 100 µM (inactive) | 33.2 µM (inactive) | – | 30.7 µM (inactive) | 28.8 µM (inactive) | 39.3 µM (inactive) | 61 µM (inactive) | 30.3 µM (inactive) | – | – | 31 µM (inactive) | 78.3 µM (inactive) | > 100 µM (inactive) | – | 29.9 µM (inactive) | – | –
COc1ccc(C2=Nc3c(nc(SC)[nH]c3=O)NC(c3ccccc3)C2)cc1 (configuration not stated) | – | 27.5 µM (inactive) | 29 µM (inactive) | 30.9 µM (inactive) | 29.1 µM (inactive) | 24.4 µM (inactive) | > 10 µM (inactive) | 22.9 µM (inactive) | – | 18.7 µM (inactive) | – | – | 44.9 µM (inactive) | 24 µM (inactive) | 19.4 µM (inactive) | – | – | 46.3 µM (inactive) | 33.7 µM (inactive)
COC(=O)C1(N2CCOCC2)CCC([C@@H](c2ccccc2)C(C)[N+](=O)[O-])C1 (some centres not stated) | 66.8 | 18.7 µM (inactive) | 0.603 µM (active) | – | > 100 µM (inactive) | > 100 µM (inactive) | > 100 µM (inactive) | 28 µM (inactive) | > 100 µM (inactive) | > 100 µM (inactive) | 2.03 µM (inactive) | > 100 µM (inactive) | 45.2 µM (inactive) | > 100 µM (inactive) | > 100 µM (inactive) | > 100 µM (inactive) | > 100 µM (inactive) | – | > 100 µM (inactive)
COC(=O)CCCc1nc2ccccc2nc1/N=N/c1ccccc1 | 23.9 | 31.3 µM (inactive) | 30.1 µM (inactive) | 30.3 µM (inactive) | > 100 µM (inactive) | 73.6 µM (inactive) | > 100 µM (inactive) | 45.9 µM (inactive) | 49.8 µM (inactive) | 9.93 µM (inactive) | 45.7 µM (inactive) | – | 47.5 µM (inactive) | 29.9 µM (inactive) | 22 µM (inactive) | > 100 µM (inactive) | > 100 µM (inactive) | > 100 µM (inactive) | 39.5 µM (inactive)
S=C1NC(c2ccccc2)NC(c2ccccc2)S1 (configuration not stated) | 51.1 | > 100 µM (inactive) | 2.2 µM (inactive) | > 100 µM (inactive) | > 100 µM (inactive) | > 100 µM (inactive) | 55 µM (inactive) | 34.6 µM (inactive) | 21.4 µM (inactive) | > 100 µM (inactive) | > 100 µM (inactive) | > 100 µM (inactive) | > 100 µM (inactive) | > 100 µM (inactive) | > 100 µM (inactive) | > 100 µM (inactive) | – | > 100 µM (inactive) | > 100 µM (inactive)
COCCOC(=O)C(C)=[N+]=[N-] | > 100 | > 100 µM (inactive) | – | > 100 µM (inactive) | – | > 100 µM (inactive) | > 100 µM (inactive) | > 100 µM (inactive) | > 100 µM (inactive) | – | > 100 µM (inactive) | > 100 µM (inactive) | > 100 µM (inactive) | – | > 100 µM (inactive) | > 100 µM (inactive) | > 100 µM (inactive) | – | > 100 µM (inactive)
COc1ccc(/C=N/c2ccc(-c3nc4ccccc4[nH]3)cc2)cc1OC | > 100 | > 100 µM (inactive) | > 100 µM (inactive) | > 100 µM (inactive) | > 100 µM (inactive) | > 100 µM (inactive) | – | > 100 µM (inactive) | > 100 µM (inactive) | > 100 µM (inactive) | > 100 µM (inactive) | > 100 µM (inactive) | > 100 µM (inactive) | > 100 µM (inactive) | 39.6 µM (inactive) | > 100 µM (inactive) | – | 47 µM (inactive) | > 100 µM (inactive)
CCN(CC)CCCCC1CCN(CC(=O)N2c3cc(Cl)ccc3NC(=O)CC2C)CC1 (configuration not stated) | > 100 | > 100 µM (inactive) | > 100 µM (inactive) | > 100 µM (inactive) | – | – | > 100 µM (inactive) | > 100 µM (inactive) | > 100 µM (inactive) | > 100 µM (inactive) | – | – | > 100 µM (inactive) | > 100 µM (inactive) | – | – | > 100 µM (inactive) | > 100 µM (inactive) | –
COC(=O)C1=C(C)NC(C)=C(C(=O)OC)C1c1cccc(N=O)c1 | 17.8 | 15.7 µM (inactive) | 3.55 µM (inactive) | 11 µM (inactive) | 15.6 µM (inactive) | 20.1 µM (inactive) | 14.3 µM (inactive) | 16.6 µM (inactive) | 16 µM (inactive) | 4.76 µM (inactive) | 11.6 µM (inactive) | – | 4.78 µM (inactive) | 31.8 µM (inactive) | 15 µM (inactive) | 15 µM (inactive) | 22.3 µM (inactive) | 7.69 µM (inactive) | 17.8 µM (inactive)
COC(=O)C(=O)C(C(=O)C(=O)Nc1ccc(Cl)cc1Cl)c1nc2ccc(Cl)cc2nc1O (configuration not stated) | > 100 | > 100 µM (inactive) | 69.7 µM (inactive) | > 100 µM (inactive) | > 100 µM (inactive) | 17.1 µM (inactive) | > 100 µM (inactive) | > 100 µM (inactive) | > 100 µM (inactive) | 82.8 µM (inactive) | – | > 100 µM (inactive) | > 100 µM (inactive) | > 100 µM (inactive) | > 100 µM (inactive) | 69.8 µM (inactive) | > 100 µM (inactive) | 58.5 µM (inactive) | > 100 µM (inactive)
Cn1c2c(c3ccccc31)CCN1C(=O)C34CCCC3CC21S4 (configuration not stated) | > 100 | > 100 µM (inactive) | – | > 100 µM (inactive) | > 100 µM (inactive) | > 100 µM (inactive) | 78.7 µM (inactive) | > 100 µM (inactive) | – | > 100 µM (inactive) | 87.1 µM (inactive) | > 100 µM (inactive) | > 100 µM (inactive) | > 100 µM (inactive) | > 100 µM (inactive) | > 100 µM (inactive) | – | > 100 µM (inactive) | 95.1 µM (inactive)
COc1cc(C2S/C(=C/c3ccccc3)C(=O)N2c2cc(Cl)ccc2Cl)cc(OC)c1OC (configuration not stated) | 38.3 | 32.3 µM (inactive) | 35.2 µM (inactive) | 12.5 µM (inactive) | 38.8 µM (inactive) | 24.2 µM (inactive) | 31.8 µM (inactive) | > 100 µM (inactive) | > 100 µM (inactive) | 34.8 µM (inactive) | 53.7 µM (inactive) | – | 36 µM (inactive) | 91.8 µM (inactive) | 36.3 µM (inactive) | > 100 µM (inactive) | > 100 µM (inactive) | 51.2 µM (inactive) | 31.6 µM (inactive)
C=CCC1OC(C)(C)Oc2ccc(OCOCCOC)cc21 (configuration not stated) | > 100 | > 100 µM (inactive) | – | > 100 µM (inactive) | > 100 µM (inactive) | > 100 µM (inactive) | > 100 µM (inactive) | > 100 µM (inactive) | > 100 µM (inactive) | > 100 µM (inactive) | – | – | > 100 µM (inactive) | > 100 µM (inactive) | > 100 µM (inactive) | > 100 µM (inactive) | > 100 µM (inactive) | > 100 µM (inactive) | –
CC1=C(C#N)C23C(=O)c4ccccc4C(=O)C2=C(O)C=CC3(O)N1 (configuration not stated) | 2.44 | 0.861 µM (active) | 0.365 µM (active) | 5.68 µM (inactive) | 4.4 µM (inactive) | 5.82 µM (inactive) | 2.52 µM (inactive) | 2.07 µM (inactive) | 5.46 µM (inactive) | 0.484 µM (active) | 7.4 µM (inactive) | – | 0.553 µM (active) | 1.67 µM (inactive) | 5.09 µM (inactive) | 14.3 µM (inactive) | 4.02 µM (inactive) | 2.12 µM (inactive) | 4.57 µM (inactive)
Nc1ccc2c(c1)NCCN2 | 61.9 | > 100 µM (inactive) | – | > 100 µM (inactive) | > 100 µM (inactive) | 54.1 µM (inactive) | 5.13 µM (inactive) | 82 µM (inactive) | 4.39 µM (inactive) | 2.75 µM (inactive) | – | 7.76 µM (inactive) | – | 18.2 µM (inactive) | 50.9 µM (inactive) | 55.7 µM (inactive) | > 100 µM (inactive) | > 100 µM (inactive) | > 100 µM (inactive)
CCSC1SC(c2ccccc2)(c2ccccc2)c2ccccc21 (configuration not stated) | 42.1 | 23.8 µM (inactive) | 54 µM (inactive) | 30.8 µM (inactive) | – | 51.3 µM (inactive) | 53.6 µM (inactive) | 26.4 µM (inactive) | 36.9 µM (inactive) | 25.4 µM (inactive) | – | 54.3 µM (inactive) | 54.8 µM (inactive) | 46 µM (inactive) | 64.7 µM (inactive) | 67.3 µM (inactive) | 45.1 µM (inactive) | 30.8 µM (inactive) | 39.4 µM (inactive)
